Laboratory results from US9868763B2, “Modulators of protease activated receptors” (The University of Queensland, priority 2011, dated 2018).

Tests used:
[1] = tested on: 2furoyl-LIGRLO-NH2-induced paw oedema; assay: PAR2 agonist-induced paw oedema; assay type: in vivo, Wistar rat; conditions: s.c.; 52 10 mg/kg, ENMD-1068 100 mg/kg; agonist 350 μg/paw
Protocol: The methods used are based on those previously described (Kelso, E. B., et al. Arthritis Rheum 2007, 56, 765-71; Kelso, E. B., et al. J Pharmacol Exp Ther 2006, 316, 1017-24; and Vergnolle, N. J Immunol 1999, 163, 5064-9). Male Wistar rats (n=3 per group) are used. Briefly, rats are given either 5 or 10 mg/kg of a compound of the present invention (p.o. via gavage in olive oil, approx. 500 μL, weight adjusted). Control animals receive only olive oil (500 μL p.o.). Two hours later, the PAR2 agonist 2-furoyl-LIGRLO (350 μg/paw in saline, 100 μL) is injected into the plantar surface (i.pl.) of the right paw pad using a 30 G needle. The left paw acts as a control, receiving saline only. Paw thickness and width are measured after 30 minutes and hourly using digital calipers (World Precision Instruments, USA) and swelling is calculated in area (mm^2; thickness multiplied by width) and expressed as a percentage change from baseline of each individual paw.
Based on previous methods (Kelso E B et al., J Pharmacol Exp Ther 2006, 316(3):1017-24; Suen J Y et al., Br J Pharmacol 2011, doi: 10.1111/j.1476-5381.2011.01610.x.), PAR2 antagonist 52 (10 mg/kg s.c.; n=4), ENMD-1068 (100 mg/kg s.c.; n=4) or vehicle control (DMSO s.c.; n=2) were administered to male Wistar rats. Baseline paw thickness and width were measured using digital calipers (World Precision Instruments, USA) expressed in area (mm^2; thickness×width). Fifteen minutes later, 2Furoyl-LIGLRO-NH2 (350 μg/paw in 100 μL saline) was injected into of the right hind paw pad (intraplantar, i.pl.). The left hind paw acted as a control, receiving saline only. In a separate experiment, vehicle (500 μL olive oil) versus PAR2 antagonist 52 (10 mg/kg p.o. in 500 μL olive oil) only were administered orally to two groups of rats (4 per group). Two hours later, β-tryptase (human recombinant lung, 20 μg in 100 μL saline) was injected into the right hind paw pad (vehicle in left for control) of all animals in each group. In all experiments, paw swelling was measured and expressed in area (mm^2; thickness×width) and plotted as % change from baseline of each individual paw.

PAR2 [2] = biological target: T1, PAR2 (Homo sapiens, UniProt P55085); assay: Colonocyte modulation: intracellular calcium mobilization in HT29 cells; assay type: cell-based; set-up: endogenous in cells; host or cells: HT29 (human colorectal adenocarcinoma); conditions: HT29 colonocytes, 15 min before 2Furoyl-LIGRLO-NH2
T1 sequence (P55085 26-397): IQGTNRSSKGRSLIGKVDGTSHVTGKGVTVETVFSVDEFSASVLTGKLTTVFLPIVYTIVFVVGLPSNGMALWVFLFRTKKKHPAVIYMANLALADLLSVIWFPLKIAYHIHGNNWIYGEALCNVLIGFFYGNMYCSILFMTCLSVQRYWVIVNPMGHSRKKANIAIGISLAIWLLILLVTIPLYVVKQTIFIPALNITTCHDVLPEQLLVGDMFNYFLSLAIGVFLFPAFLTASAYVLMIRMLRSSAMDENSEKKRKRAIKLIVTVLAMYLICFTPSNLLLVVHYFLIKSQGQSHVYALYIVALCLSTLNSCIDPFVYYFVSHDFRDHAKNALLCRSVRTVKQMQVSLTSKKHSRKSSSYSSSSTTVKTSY
Protocol: Human colorectal adenocarcinoma (HT29) cells were incubated with a calcium binding dye ([…]) buffer for 1 h at 37° C. […] Intracellular calcium mobilization was measured by differences in fluorescence plotted against corresponding antagonist concentrations, enabling the determination of antagonist potency.

PAR2 [3] = biological target: T2, PAR2 (Mus musculus, UniProt P55086); assay: Intracellular calcium mobilization in MIN6 beta cells; assay type: cell-based; conditions: concentration-dependent
T2 construct: endogenous in cells; host or cells: MIN6 (mouse pancreatic beta cell line)
T2 sequence (P55086 26-399): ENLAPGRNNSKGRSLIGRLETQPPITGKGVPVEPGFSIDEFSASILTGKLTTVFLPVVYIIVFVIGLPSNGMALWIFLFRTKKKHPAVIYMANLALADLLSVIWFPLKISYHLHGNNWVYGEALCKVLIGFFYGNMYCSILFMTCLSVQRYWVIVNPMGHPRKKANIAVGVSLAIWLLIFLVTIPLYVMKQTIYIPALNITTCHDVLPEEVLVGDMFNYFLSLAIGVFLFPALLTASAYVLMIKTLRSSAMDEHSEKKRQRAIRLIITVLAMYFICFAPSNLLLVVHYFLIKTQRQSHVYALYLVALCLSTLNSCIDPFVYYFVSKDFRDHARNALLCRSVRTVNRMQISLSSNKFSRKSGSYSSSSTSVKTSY
Protocol: Results: Pathogenesis of pancreatic dysfunction is linked to chronic nutritional surplus and elevated fatty acids, so in vivo and in vitro effects of compound 52 were evaluated on rat pancreas and mouse MIN6 beta cells. […] PAR2 agonists and compound 52 were further evaluated in vitro for glucose-stimulated insulin secretion (GSIS) and intracellular calcium mobilization in mouse MIN6 beta cells.

MIN6 beta cells = assay: Glucose-stimulated insulin secretion (GSIS); assay type: cell-based, mouse; conditions: 52 as pre-treatment before 2f-LIGRLO-NH2
Protocol: Rat pancreas and mouse MIN6 beta cells were cultured in DMEM (25 mM glucose) supplemented with 15% fetal calf serum, 10 U/mL penicillin, 10 U/mL streptomycin, 2 mM L-glutamine and […] 2-mercaptoethanol. MIN6 beta cells were passaged and harvested using non-enzymatic cell dissociation solution (Sigma-Aldrich). Glucose-stimulated insulin secretion (GSIS) was performed as described next. MIN6 beta cells were seeded at 0.8×106 mL in a 96-well plate and cultured for 48 h. Cells were washed twice with glucose-free Krebs buffer (NaCl 119 mM, KCl 4.74 mM, CaCl2 2.54 mM, MgCl2 1.19 mM, KH2PO4 1.19 mM, NaHCO3 25 mM, HEPES (pH 7.4) 10 mM and 0.05% BSA). Cells were pre-treated with compound 52 for 30 min with Krebs buffer supplemented with 2.5 mM glucose. After incubation, cells were washed twice with glucose-free Krebs buffer. Glucose (2.5 mM and 25 mM) and compounds were added at specified concentration and incubated for 1 h. Supernatants were collected and insulin concentrations were determined by ELISA (Abeam).

[4] = tested on: human monocyte derived macrophages (HMDMs); assay: Palmitic acid stimulation of human monocyte derived macrophages; assay type: cell-based
Protocol: To investigate if PAR2 is specifically linked to macrophage inflammation, the effect of palmitic acid on mRNA levels of PARs on human monocyte derived macrophages (HMDMs) was measured (FIG. 12). […] The increase of PAR2 mRNA in HMDM in the presence of palmitic acid was dose-dependent (FIG. 12B). Fold change in PAR2 was calculated relative to untreated sample. FIGS. 12C and D illustrate that palmitic acid stimulates proinflammition cytokines, IL-6 and IL-8, secretion from HMDM. Error bars are means±SEM; *P<0.05, **P<0.01, ***P<0.001.

Compound: CC(C)CC(=O)N1CCN(C(=O)CCCCCN)CC1 [ENMD-1068, N1-3-methylbutyryl-N4-6-aminohexanoyl-piperazine, reference compound]
- paw oedema induced by 2furoyl-LIGRLO-NH2 [1]: had no effect
- IC50 (PAR2 [2]): 5 mM

Compound: 2f-LIGRLO-NH2 [reference compound]
- intracellular calcium release in MIN6 beta cells (PAR2 [3]): activated intracellular calcium release
- glucose-stimulated insulin secretion (MIN6 beta cells): inhibited glucose stimulated insulin sensitivity

Compound: CCCCCCCCCCCCCCCC(=O)O [palmitic acid]
- IL-6 and IL-8 secretion from HMDM [4]: stimulates
- increase in mRNA concentrations of PAR2 ([4]; HMDM, concentration dependent, relative to untreated): < 20 fold
